Measured values: publication PMC8344021, “Discovery of Small Molecule Bak Activator for Lung Cancer Therapy” (Theranostics, 2021)

How the values were obtained:
A549 cells = assay: Dynamic BH3 profiling (DBP), mitochondrial priming; format: cell-based, human; conditions: 0, 0.25, 0.5, 0.75, 1.0 µM, 16h
Protocol: (§1) DBP using Bim peptide was carried out as described previously [24]-[26]. After treatment with BKA-073, venetoclax (ABT-199) or DMSO control for 16h, cells were collected, washed and resuspended at 2 x 10^6 cells/ mL in mannitol experimental buffer (MEB) [150 mM D-mannitol, 10 mM HEPES-KOH (pH 7.5), 50 mM KCl, 20 μM EGTA, 20 μM EDTA, 0.1% BSA, and 5 mM succinate] as described. One volume of the 4x cell suspension was added to one volume of a 4x dye solution containing 4 μM JC-1, […] oligomycin, 0.02% digitonin, 20mM β-mercaptoethanol in MEB. The 2x cell/dye mixture was allowed to rest for 5-10 min at room temperature to allow for permeabilization and JC-1 staining. A total of 15μl of the 2x cell/dye mixture was loaded into a 384-well plate that contained 15µL of Bim BH3 peptide (0.03, 0.1, 0.3, 1, and 3 μM) in MEB, shaken for 15 s inside the reader, and the fluorescence at 590 nm monitored every 5 min for 180 min at 32 °C. The dynamic BH3 profile (∆ % Priming) was calculated as described [24]-[26].
The BH3 death domain is known to be required for the proapoptotic function of Bak. […] The top 500 compounds determined to have the highest affinity for the BH3 domain were obtained from the NCI and tested for cytotoxicity in human lung cancer cells (i.e. H1299, H460 and A549 cells) by sulforhodamine B (SRB) assay for further screening as described, [36]. […]

[1] = tested on: MDA-MB-231, MCF7, HCT-116, Ramos, OPM-1, PANC-1 and U2OS cell lines; assay: Dynamic BH3 profiling in other types of cancer cell lines; format: cell-based, human; conditions: 1μM, 16h
Protocol: as §1
Figure S2. BKA-073 induces mitochondrial priming and apoptosis in various type of cancers. (A) Expression levels of Bak were analyzed by Western blot in various type of cancer cell lines. (B-C) Various type of cancer cell lines were treated with BKA -073 (1µM) for 16h or 72h, followed by analysis of dynamic BH3 profiling (B) or apoptotic cell death (C), respectively. […]

A549 xenografts = assay: A549 lung cancer xenografts, tumor growth; format: in vivo, Nu/Nu nude mice
Protocol: Six-week-old female Nu/Nu nude mice were purchased from Envigo (Indianapolis, IN) and housed under pathogen-free conditions in microisolator cages. The animal propagation protocol was approved by the Emory Institutional Animal Care and Use Committee (IACUC) and the Emory Animal Ethics Committee. 3×10^6 lung cancer cells were injected into subcutaneous tissue in the flank region of nude mice. The tumors were allowed to grow to an average volume of 150~200 mm^3 prior to initiation of therapy as previously described, [29]. Patient-derived xenografts (PDXs, TKO-002 and TKO-005) were established as part of an IRB-approved phase II co-clinical trial of arsenic trioxide in patients with relapsed SCLC who had failed standard platinum-based chemotherapy. Tumor samples were obtained by image-guided biopsy and were directly implanted into Nu/Nu nude mice without intervening propagation in plastic culture plates. Direct serial propagation of growing tumor occurred for up to 5 generations. The animal propagation protocol was approved by the Emory IACUC and the Emory Animal Ethics Committee. Mice with SCLC and NSCLC xenografts or PDXs were treated with BKA-073 intraperitoneally (i.p.) or venetoclax orally as indicated. During treatment, tumor volume (V) was measured by caliper measurements once every two days as described previously. Mice were euthanized by CO2 inhalation at the end of treatment. Harvested tumor tissues were used for further analysis.
To assess whether BKA-073 induced suppression of tumor growth occurs through activation of Bak and apoptosis in vivo, representative samples from harvested tumor tissues were analyzed by cross-linking with BMH for Bak oligomerization or by immunohistochemistry (IHC) for active caspase 3 as described, [29], [47]. […] There were no decreases in white cells (WBC), red blood cells (RBC) and platelets (PLT) in blood.

COc1ccc2nc3ccccc3c(NCCNCC(C)O)c2c1 (stereo not shown) [BKA-073] was tested, and the “induction of mitochondrial priming (∆% priming)” value (A549 cells) was “in a dose-dependent manner”, the “induction of mitochondrial priming” value [1] was “potently induced” and the “apoptosis (active caspase 3, IHC) in tumor tissues” value (A549 xenografts; 5, 10, 15mg/kg/d i.p., 28 days) was “Dose-dependent”. For the same compound, the tumor growth (A549 xenografts; 5, 10, 15mg/kg/d i.p., 28 days) was “potently suppressed lung cancer growth in a dose-dependent fashion”, the “Bak oligomerization in tumor tissues” value (A549 xenografts; 5, 10, 15mg/kg/d i.p., 28 days, BMH cross-linking) was “Dose-dependent” and the tumor growth (A549 xenografts; A549-P xenografts, 15 mg/kg/d, 4 weeks) was “repressed xenografts”. The tumor growth (A549 xenografts; parental A549 xenografts, 12.5mg/kg/d i.p., 28 days) was “potently inhibited growth”.
